≈ marks a conversion by molar mass, not a printed value.
Tests used:
H. influenzae 43095 = test: MIC, broth dilution method, H. influenzae; type: cell-based; settings: Haemophilus influenzae, 43095; Gram-negative bacteria; in vitro, broth dilution; read-out: MIC H. influenzae 43095
Description: (§1) Minimum Inhibition Concentration (MIC), Broth Dilution Method:
(§2) The compounds of the present invention were tested against an assortment of Gram positive and Gram negative organisms using standard microtitration techniques well known to those skilled in the art. Cultures of bacteria are initially brought up from the freezer by streaking a loopful onto agar plates under the appropriate conditions. For instance bacterial stocks are streaked onto chocolate agar and then incubated for 18 hours at 35-37° C. in a 5% CO2 incubator. Five to ten colonies are picked from the chocolate agar plate for subculture to Brain-Heart infusion (BHI) broth, Mueller Hinton broth, or BHI containing 4% serum and incubated under the appropriate conditions. The ability of the test compound to act as an antimicrobial is determined by the ability to inhibit bacterial growth in vitro. The optical density of the culture of organisms in the presence of an active compound is compared to the optical density of the same organism untreated. The activity of the compounds is described as either negative or the lowest concentration inhibiting growth (Minimum Inhibitory Concentration [MIC]).

S. pneumoniae 11733 = test: MIC, broth dilution method, S. pneumoniae; type: cell-based; settings: Streptococcus pneumoniae, 11733; Gram-positive bacteria; in vitro, broth dilution; read-out: MIC S. pneumoniae 11733
Description: as §1, §2

S. aureus 29213 = test: MIC, broth dilution method, S. aureus; type: cell-based; settings: Staphylococcus aureus, 29213; Gram-positive bacteria; in vitro, broth dilution; read-out: MIC S. aureus 29213
Description: as §1, §2

E. coli 43888 = test: MIC, broth dilution method, E. coli; type: cell-based; settings: Escherichia coli, 43888; Gram-negative bacteria; in vitro, broth dilution; read-out: MIC E. coli 43888
Description: as §1, §2

Row | Compound | MIC (H. influenzae 43095) [µg/mL] | melting point | MIC (S. pneumoniae 11733) [µg/mL] | MIC (S. aureus 29213) [µg/mL] | MIC (E. coli 43888) [µg/mL]
1 | Cc1ccc(Oc2ccc(C3NC(C(=O)O)CS3)cc2C#N)c(O)c1 (stereo not shown) [Example 9, 2-[3-Cyano-4-(2-hydroxy-4-methyl-phenoxy)-phenyl]-thiazolidine-4-carboxylic acid] | 4 (≈ 11.2 µM) | 150 to 152 °C | 4 (≈ 11.2 µM) | 2 (≈ 5.61 µM) | 4 (≈ 11.2 µM)
2 | Cc1ccc(Oc2ccc(C3NC(C(=O)O)CS3)cc2)c(O)c1 (stereo not shown) [Example 7, 2-[4-(2-Hydroxy-4-methyl-phenoxy)-phenyl]-thiazolidine-4-carboxylic acid] | 1 (≈ 3.02 µM) | 172 to 174 °C (dec.) | 1 (≈ 3.02 µM) | 0.25 (≈ 0.754 µM) | 4 (≈ 12.1 µM)
3 | Cc1ccc(Oc2ccccc2-c2nnn[nH]2)c(O)c1 [Example 14, 5-Methyl-2-[2-(1H-tetrazol-5-yl)-phenoxy]-phenol and 5-methyl-2-[2-(2H-tetrazol-5-yl)-phenoxy]-phenol] | 0.125 (≈ 0.466 µM) | 205 to 207 °C | 2 (≈ 7.46 µM) | 0.002 (≈ 0.00746 µM) | 0.125 (≈ 0.466 µM)
4 | Cc1ccc(Oc2ccc(-c3nnc(N)s3)cc2)c(O)c1 [Example 23, 2-[4-(5-Amino-[1,3,4]thiadiazol-2-yl)-phenoxy]-5-methyl-phenol] | > 25 | 240 to 243 °C (dec.) | 12.5 (≈ 41.8 µM) | 1.6 (≈ 5.34 µM) | 25 (≈ 83.5 µM)
5 | Cc1ccc(Oc2ccc(C3NC(C(=O)O)CCS3)cc2C#N)c(O)c1 (stereo not shown) [Example 10, 2-[3-Cyano-4-(2-hydroxy-4-methyl-phenoxy)-phenyl]-[1,3]thiazinane-4-carboxylic acid] | 2 (≈ 5.4 µM) | 147 to 150 °C (dec.) | 2 (≈ 5.4 µM) | 2 (≈ 5.4 µM) | 4 (≈ 10.8 µM)
6 | Cc1ccc(Oc2ccc(C3NCCS3)cc2)c(O)c1 (stereo not shown) [Example 5, 5-Methyl-2-[4-(thiazolidin-2-yl)-phenoxy]-phenol] | 0.125 (≈ 0.435 µM) | 197 to 199 °C | 4 (≈ 13.9 µM) | 0.5 (≈ 1.74 µM) | 4 (≈ 13.9 µM)
7 | Oc1ccccc1Oc1ccc(-c2ccsc2)cc1O [Example 1, 2-(2-Hydroxy-phenoxy)-5-(thiophen-3-yl)-phenol] | 2 (≈ 7.03 µM) | 114 to 116 °C | 2 (≈ 7.03 µM) | 4 (≈ 14.1 µM) | 15.7 (≈ 55.2 µM)
8 | Cc1ccc(Oc2ccc(-c3nnn[nH]3)cc2)c(O)c1 [Example 13, 5-Methyl-2-[4-(1H-tetrazol-5-yl)-phenoxy]-phenol and 5-methyl-2-[4-(2H-tetrazol-5-yl)-phenoxy]-phenol] | 2 (≈ 7.46 µM) | 173 to 175 °C | 7.9 (≈ 29.4 µM) | 7.9 (≈ 29.4 µM) | 62.5 (≈ 233 µM)
9 | Cc1ccc(Oc2ccc(C3NC(C(=O)O)CCS3)cc2)c(O)c1 (stereo not shown) [Example 8, 2-[4-(2-Hydroxy-4-methyl-phenoxy)-phenyl]-[1, 3]thiazinane-4-carboxylic acid] | 0.5 (≈ 1.45 µM) | 140 to 145 °C (dec.) | 4 (≈ 11.6 µM) | 0.5 (≈ 1.45 µM) | 4 (≈ 11.6 µM)
10 | Cc1ccc(Oc2ccc(-c3cccs3)cc2O)c(O)c1 [Example 3, 2-(2-Hydroxy-4-methyl-phenoxy)-5-(thiophen-2-yl)-phenol] | 4 (≈ 13.4 µM) | 91 to 92 °C | 1 (≈ 3.35 µM) | 4 (≈ 13.4 µM) | 15.7 (≈ 52.6 µM)
11 | Nc1nnc(-c2ccccc2Oc2ccc(F)cc2O)s1 [Example 22, 2-[2-(5-Amino-[1,3,4]thiadiazol-2-yl)-phenoxy]-5-fluoro-phenol] | > 25 | 250 to 255 °C (dec.) | 25 (≈ 82.4 µM) | 12.5 (≈ 41.2 µM) | > 25

From patent US20060211697A1, “2-(2 Or 4-substituted aryloxy)-phenol derivatives as antibacterial agents” (priority 2004, published 2006)
